Source: the CheMixHub viscosity set
± gives the uncertainty stated by the source.

Experiment: xn = mol fraction of the nth substance listed
Conditions: 100 kPa

OC1CCCCCCC1 + OCCO
viscosity (293.15 K, x1 = 0.0094): 20.68 ± 3 mPa·s
viscosity (293.15 K, x1 = 0.0394): 21.39 ± 3 mPa·s
viscosity (293.15 K, x1 = 0.0577): 21.55 ± 3 mPa·s
viscosity (293.15 K, x1 = 0.0877): 21.87 ± 3 mPa·s
viscosity (293.15 K, x1 = 0.0999): 21.97 ± 3 mPa·s
viscosity (293.15 K, x1 = 0.196): 23.21 ± 3 mPa·s
viscosity (293.15 K, x1 = 0.3048): 24.11 ± 3 mPa·s
viscosity (293.15 K, x1 = 0.3968): 28.39 ± 3 mPa·s
viscosity (293.15 K, x1 = 0.4992): 32.09 ± 3.1 mPa·s
viscosity (293.15 K, x1 = 0.5876): 42.39 ± 3.1 mPa·s
viscosity (293.15 K, x1 = 0.6991): 59.53 ± 3.1 mPa·s
viscosity (293.15 K, x1 = 0.7995): 87.86 ± 3.4 mPa·s
viscosity (293.15 K, x1 = 0.8976): 130 ± 4.9 mPa·s
viscosity (298.15 K, x1 = 0.0094): 16.94 ± 3 mPa·s
viscosity (298.15 K, x1 = 0.0394): 17.13 ± 3 mPa·s
viscosity (298.15 K, x1 = 0.0577): 17.25 ± 3 mPa·s
viscosity (298.15 K, x1 = 0.0877): 17.42 ± 3 mPa·s
viscosity (298.15 K, x1 = 0.0999): 17.51 ± 3 mPa·s
viscosity (298.15 K, x1 = 0.196): 18.26 ± 3 mPa·s
viscosity (298.15 K, x1 = 0.3048): 20.09 ± 3 mPa·s
viscosity (298.15 K, x1 = 0.3968): 21.73 ± 3 mPa·s
viscosity (298.15 K, x1 = 0.4992): 25.61 ± 3 mPa·s
viscosity (298.15 K, x1 = 0.5876): 31.92 ± 3.1 mPa·s
viscosity (298.15 K, x1 = 0.6991): 45.81 ± 3.1 mPa·s
viscosity (298.15 K, x1 = 0.7995): 66.12 ± 3.1 mPa·s
viscosity (298.15 K, x1 = 0.8976): 94 ± 3.6 mPa·s
viscosity (303.15 K, x1 = 0.0094): 13.8 ± 3 mPa·s
viscosity (303.15 K, x1 = 0.0394): 13.91 ± 3 mPa·s
viscosity (303.15 K, x1 = 0.0577): 13.99 ± 3 mPa·s
viscosity (303.15 K, x1 = 0.0877): 14.13 ± 3 mPa·s
viscosity (303.15 K, x1 = 0.0999): 14.16 ± 3 mPa·s
viscosity (303.15 K, x1 = 0.196): 14.61 ± 3 mPa·s
viscosity (303.15 K, x1 = 0.3048): 15.23 ± 3 mPa·s
viscosity (303.15 K, x1 = 0.3968): 16.84 ± 3 mPa·s
viscosity (303.15 K, x1 = 0.4992): 20.38 ± 3 mPa·s
viscosity (303.15 K, x1 = 0.5876): 25.48 ± 3 mPa·s
viscosity (303.15 K, x1 = 0.6991): 35.59 ± 3.1 mPa·s
viscosity (303.15 K, x1 = 0.7995): 49.1 ± 3.1 mPa·s
viscosity (303.15 K, x1 = 0.8976): 71 ± 3.2 mPa·s
viscosity (308.15 K, x1 = 0.0094): 11.25 ± 3 mPa·s
viscosity (308.15 K, x1 = 0.0394): 11.23 ± 3 mPa·s
viscosity (308.15 K, x1 = 0.0577): 11.26 ± 3 mPa·s
viscosity (308.15 K, x1 = 0.0877): 11.32 ± 3 mPa·s
viscosity (308.15 K, x1 = 0.0999): 11.34 ± 3 mPa·s
viscosity (308.15 K, x1 = 0.196): 11.54 ± 3 mPa·s
viscosity (308.15 K, x1 = 0.3048): 11.92 ± 3 mPa·s
viscosity (308.15 K, x1 = 0.3968): 13.28 ± 3 mPa·s
viscosity (308.15 K, x1 = 0.4992): 16.11 ± 3 mPa·s
viscosity (308.15 K, x1 = 0.5876): 19.91 ± 3 mPa·s
viscosity (308.15 K, x1 = 0.6991): 27 ± 3 mPa·s
viscosity (308.15 K, x1 = 0.7995): 35.98 ± 3.1 mPa·s
viscosity (308.15 K, x1 = 0.8976): 49.5 ± 3.1 mPa·s
viscosity (313.15 K, x1 = 0.0094): 9.588 ± 3 mPa·s
viscosity (313.15 K, x1 = 0.0394): 9.61 ± 3 mPa·s
viscosity (313.15 K, x1 = 0.0577): 9.627 ± 3 mPa·s
viscosity (313.15 K, x1 = 0.0877): 9.649 ± 3 mPa·s
viscosity (313.15 K, x1 = 0.0999): 9.664 ± 3 mPa·s
viscosity (313.15 K, x1 = 0.196): 9.751 ± 3 mPa·s
viscosity (313.15 K, x1 = 0.3048): 9.992 ± 3 mPa·s
viscosity (313.15 K, x1 = 0.3968): 11.14 ± 3 mPa·s
viscosity (313.15 K, x1 = 0.4992): 13.47 ± 3 mPa·s
viscosity (313.15 K, x1 = 0.5876): 16.45 ± 3 mPa·s
viscosity (313.15 K, x1 = 0.6991): 21.75 ± 3 mPa·s
viscosity (313.15 K, x1 = 0.7995): 28.14 ± 3 mPa·s
viscosity (313.15 K, x1 = 0.8976): 39 ± 3.1 mPa·s
viscosity (318.15 K, x1 = 0.0094): 7.888 ± 3 mPa·s
viscosity (318.15 K, x1 = 0.0394): 7.891 ± 3 mPa·s
viscosity (318.15 K, x1 = 0.0577): 7.892 ± 3 mPa·s
viscosity (318.15 K, x1 = 0.0877): 7.894 ± 3 mPa·s
viscosity (318.15 K, x1 = 0.0999): 7.895 ± 3 mPa·s
viscosity (318.15 K, x1 = 0.196): 7.903 ± 3 mPa·s
viscosity (318.15 K, x1 = 0.3048): 7.975 ± 3 mPa·s
viscosity (318.15 K, x1 = 0.3968): 9.079 ± 3 mPa·s
viscosity (318.15 K, x1 = 0.4992): 10.83 ± 3 mPa·s
viscosity (318.15 K, x1 = 0.5876): 13.04 ± 3 mPa·s
viscosity (318.15 K, x1 = 0.6991): 16.79 ± 3 mPa·s
viscosity (318.15 K, x1 = 0.7995): 21.15 ± 3 mPa·s
viscosity (318.15 K, x1 = 0.8976): 28 ± 3 mPa·s
